Measured values: PubChem BioAssay AID2060906 (Molecular Pharmacology Branch, DTP, NCI, 2025)
Values belong to the compound of their own block, whether it stands above or below them.

System: 485176-168-R4-J1-PDC complex spheroid growth
Assay: Anticancer human tumor 485176-168-R4-J1-PDC patient-derived pancreatic adenocarcinoma cell line growth inhibition [RAS]
Conditions: for IC50: curve of first compound; for viability, T/C: stronger effect = lower value
In short: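 Tumour cells grown as complex spheroids with HUVEC endothelial cells and mesenchymal stem cells, treated with RAS pathway inhibitor combinations. Each agent spans half-log steps from near clinical Cmax, or 10 microM where Cmax is unknown.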

[1] = second compound 0.00316 µM, first compound 0.000949 µM
[2] = second compound 0.00316 µM, first compound 0.003 µM
[3] = second compound 0.00316 µM, first compound 0.00949 µM
[4] = second compound 0.00316 µM, first compound 0.03 µM
[5] = second compound 0.00316 µM, first compound 0.0949 µM
[6] = second compound 0.00316 µM, first compound 0.3 µM
[7] = second compound 0.01 µM, first compound 0.000949 µM
[8] = second compound 0.01 µM, first compound 0.003 µM
[9] = second compound 0.01 µM, first compound 0.00949 µM
[10] = second compound 0.01 µM, first compound 0.03 µM
[11] = second compound 0.01 µM, first compound 0.0949 µM
[12] = second compound 0.01 µM, first compound 0.3 µM
[13] = second compound 0.0316 µM, first compound 0.000949 µM
[14] = second compound 0.0316 µM, first compound 0.003 µM
[15] = second compound 0.0316 µM, first compound 0.00949 µM
[16] = second compound 0.0316 µM, first compound 0.03 µM
[17] = second compound 0.0316 µM, first compound 0.0949 µM
[18] = second compound 0.0316 µM, first compound 0.3 µM
[19] = second compound 0.1 µM, first compound 0.000949 µM
[20] = second compound 0.1 µM, first compound 0.003 µM
[21] = second compound 0.1 µM, first compound 0.00949 µM
[22] = second compound 0.1 µM, first compound 0.03 µM
[23] = second compound 0.1 µM, first compound 0.0949 µM
[24] = second compound 0.1 µM, first compound 0.3 µM
[25] = second compound 0.316 µM, first compound 0.000949 µM
[26] = second compound 0.316 µM, first compound 0.003 µM
[27] = second compound 0.316 µM, first compound 0.00949 µM
[28] = second compound 0.316 µM, first compound 0.03 µM
[29] = second compound 0.316 µM, first compound 0.0949 µM
[30] = second compound 0.316 µM, first compound 0.3 µM
[31] = second compound 1 µM, first compound 0.000949 µM
[32] = second compound 1 µM, first compound 0.003 µM
[33] = second compound 1 µM, first compound 0.00949 µM
[34] = second compound 1 µM, first compound 0.03 µM
[35] = second compound 1 µM, first compound 0.0949 µM
[36] = second compound 1 µM, first compound 0.3 µM
[37] = second compound 0.000949 µM, first compound 0.00316 µM
[38] = second compound 0.000949 µM, first compound 0.01 µM
[39] = second compound 0.000949 µM, first compound 0.0316 µM
[40] = second compound 0.000949 µM, first compound 0.1 µM
[41] = second compound 0.000949 µM, first compound 0.316 µM
[42] = second compound 0.000949 µM, first compound 1 µM
[43] = second compound 0.003 µM, first compound 0.00316 µM
[44] = second compound 0.003 µM, first compound 0.01 µM
[45] = second compound 0.003 µM, first compound 0.0316 µM
[46] = second compound 0.003 µM, first compound 0.1 µM
[47] = second compound 0.003 µM, first compound 0.316 µM
[48] = second compound 0.003 µM, first compound 1 µM
[49] = second compound 0.00949 µM, first compound 0.00316 µM
[50] = second compound 0.00949 µM, first compound 0.01 µM
[51] = second compound 0.00949 µM, first compound 0.0316 µM
[52] = second compound 0.00949 µM, first compound 0.1 µM
[53] = second compound 0.00949 µM, first compound 0.316 µM
[54] = second compound 0.00949 µM, first compound 1 µM
[55] = second compound 0.03 µM, first compound 0.00316 µM
[56] = second compound 0.03 µM, first compound 0.01 µM
[57] = second compound 0.03 µM, first compound 0.0316 µM
[58] = second compound 0.03 µM, first compound 0.1 µM
[59] = second compound 0.03 µM, first compound 0.316 µM
[60] = second compound 0.03 µM, first compound 1 µM
[61] = second compound 0.0949 µM, first compound 0.00316 µM
[62] = second compound 0.0949 µM, first compound 0.01 µM
[63] = second compound 0.0949 µM, first compound 0.0316 µM
[64] = second compound 0.0949 µM, first compound 0.1 µM
[65] = second compound 0.0949 µM, first compound 0.316 µM
[66] = second compound 0.0949 µM, first compound 1 µM
[67] = second compound 0.3 µM, first compound 0.00316 µM
[68] = second compound 0.3 µM, first compound 0.01 µM
[69] = second compound 0.3 µM, first compound 0.0316 µM
[70] = second compound 0.3 µM, first compound 0.1 µM
[71] = second compound 0.3 µM, first compound 0.316 µM
[72] = second compound 0.3 µM, first compound 1 µM
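Note: spheroids exposed to compounds for seven days before readout.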
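Throughout, for viability, T/C: luminescence viability expressed relative to DMSO vehicle wells set as 100%.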

IC50 (second compound 0.00316 µM): > 300 nM
IC50 (second compound 0.01 µM): 80.8 nM
IC50 (second compound 0.0316 µM): > 300 nM
IC50 (second compound 0.1 µM): 133 nM
IC50 (second compound 0.316 µM): 43.1 nM
IC50 (second compound 1 µM): 94.4 nM
SMILES: CC1(C)CCC(Nc2ncc(C(F)(F)F)c(-c3c[nH]c4c(P(C)(C)=O)c(C#N)ccc34)n2)CN1 (stereo not drawn) + C=CC(=O)N1CCN(c2nc(OCC3CCCN3C)nc3c(F)c(-c4nc(N)cc(C)c4C(F)(F)F)c(Cl)cc23)C(C)C1
viability, T/C [1]: 116%
viability, T/C [2]: 109%
viability, T/C [3]: 85.6%
viability, T/C [4]: 60%
viability, T/C [5]: 46.2%
viability, T/C [6]: 55.6%
viability, T/C [7]: 122%
viability, T/C [8]: 98.9%
viability, T/C [9]: 75.7%
viability, T/C [10]: 53.9%
viability, T/C [11]: 48.4%
viability, T/C [12]: 48.1%
viability, T/C [13]: 100%
viability, T/C [14]: 105%
viability, T/C [15]: 81.5%
viability, T/C [16]: 59.5%
viability, T/C [17]: 51%
viability, T/C [18]: 49.1%
viability, T/C [19]: 102%
viability, T/C [20]: 84.8%
viability, T/C [21]: 80.4%
viability, T/C [22]: 63.8%
viability, T/C [23]: 47.2%
viability, T/C [24]: 47.8%
viability, T/C [25]: 92.7%
viability, T/C [26]: 104%
viability, T/C [27]: 81%
viability, T/C [28]: 52%
viability, T/C [29]: 52.1%
viability, T/C [30]: 44.2%
viability, T/C [31]: 108%
viability, T/C [32]: 106%
viability, T/C [33]: 82.8%
viability, T/C [34]: 57%
viability, T/C [35]: 52.2%
viability, T/C [36]: 46.9%

IC50 (second compound 0.00316 µM): 13.3 nM
IC50 (second compound 0.01 µM): 13.7 nM
IC50 (second compound 0.0316 µM): 11.1 nM
IC50 (second compound 0.1 µM): 11.9 nM
IC50 (second compound 0.316 µM): 16.6 nM
IC50 (second compound 1 µM): 11.1 nM
SMILES: CCc1c2c(nc3ccc(O)cc13)-c1cc3c(c(=O)n1C2)COC(=O)[C@]3(O)CC + C=CC(=O)N1CCN(c2nc(OCC3CCCN3C)nc3c(F)c(-c4nc(N)cc(C)c4C(F)(F)F)c(Cl)cc23)C(C)C1
viability, T/C [1]: 94.2%
viability, T/C [2]: 79.2%
viability, T/C [3]: 58.4%
viability, T/C [4]: 31.9%
viability, T/C [5]: 13.9%
viability, T/C [6]: 6.54%
viability, T/C [7]: 94%
viability, T/C [8]: 82.6%
viability, T/C [9]: 60.6%
viability, T/C [10]: 28.8%
viability, T/C [11]: 12.5%
viability, T/C [12]: 6.49%
viability, T/C [13]: 84.8%
viability, T/C [14]: 97.8%
viability, T/C [15]: 47.5%
viability, T/C [16]: 27.8%
viability, T/C [17]: 10.9%
viability, T/C [18]: 4.77%
viability, T/C [19]: 81.3%
viability, T/C [20]: 70.1%
viability, T/C [21]: 54.1%
viability, T/C [22]: 34.5%
viability, T/C [23]: 11.2%
viability, T/C [24]: 6.91%
viability, T/C [25]: 92.8%
viability, T/C [26]: 82.4%
viability, T/C [27]: 71.8%
viability, T/C [28]: 27%
viability, T/C [29]: 14%
viability, T/C [30]: 5.42%
viability, T/C [31]: 95.9%
viability, T/C [32]: 75%
viability, T/C [33]: 58.7%
viability, T/C [34]: 22.7%
viability, T/C [35]: 10.5%
viability, T/C [36]: 6.39%

IC50 (second compound 0.000949 µM): > 1000 nM
IC50 (second compound 0.003 µM): > 1000 nM
IC50 (second compound 0.00949 µM): > 1000 nM
IC50 (second compound 0.03 µM): > 1000 nM
IC50 (second compound 0.0949 µM): > 1000 nM
IC50 (second compound 0.3 µM): > 1000 nM
SMILES: C=CC(=O)Nc1cc(Nc2nccc(-c3cn(C)c4ccccc34)n2)c(OC)cc1N(C)CCN(C)C + CCn1c(-c2cc(N3CCN(C)CC3)cnc2C(C)OC)c2c3cc(ccc31)-c1csc(n1)CC(NC(=O)C1CC1C)C(=O)N1CCCC(N1)C(=O)OCC(C)(C)C2
viability, T/C [37]: 88.1%
viability, T/C [38]: 91.4%
viability, T/C [39]: 95.6%
viability, T/C [40]: 89.9%
viability, T/C [41]: 79.7%
viability, T/C [42]: 69.4%
viability, T/C [43]: 92.8%
viability, T/C [44]: 80.3%
viability, T/C [45]: 78.6%
viability, T/C [46]: 76%
viability, T/C [47]: 86.4%
viability, T/C [48]: 60.5%
viability, T/C [49]: 91.8%
viability, T/C [50]: 93.3%
viability, T/C [51]: 73.7%
viability, T/C [52]: 94%
viability, T/C [53]: 83.2%
viability, T/C [54]: 62.9%
viability, T/C [55]: 70%
viability, T/C [56]: 87.7%
viability, T/C [57]: 85.2%
viability, T/C [58]: 90.6%
viability, T/C [59]: 63.4%
viability, T/C [60]: 57.9%
viability, T/C [61]: 77.8%
viability, T/C [62]: 83%
viability, T/C [63]: 81.2%
viability, T/C [64]: 61.9%
viability, T/C [65]: 83.3%
viability, T/C [66]: 64.3%
viability, T/C [67]: 81.6%
viability, T/C [68]: 72.9%
viability, T/C [69]: 73.4%
viability, T/C [70]: 84.2%
viability, T/C [71]: 71.4%
viability, T/C [72]: 50.2%

IC50 (second compound 0.000949 µM): 116 nM
IC50 (second compound 0.003 µM): 90.2 nM
IC50 (second compound 0.00949 µM): 33 nM
IC50 (second compound 0.03 µM): 22.9 nM
IC50 (second compound 0.0949 µM): 14.5 nM
IC50 (second compound 0.3 µM): < 3.16 nM
SMILES: O=C(c1ccc(F)c(F)c1Nc1ccc(I)cc1F)N1CC(O)([C@@H]2CCCCN2)C1 + CCn1c(-c2cc(N3CCN(C)CC3)cnc2C(C)OC)c2c3cc(ccc31)-c1csc(n1)CC(NC(=O)C1CC1C)C(=O)N1CCCC(N1)C(=O)OCC(C)(C)C2
viability, T/C [37]: 87.1%
viability, T/C [38]: 62.7%
viability, T/C [39]: 65.1%
viability, T/C [40]: 51%
viability, T/C [41]: 43.8%
viability, T/C [42]: 34.1%
viability, T/C [43]: 85.9%
viability, T/C [44]: 75.5%
viability, T/C [45]: 63.8%
viability, T/C [46]: 48.5%
viability, T/C [47]: 38.8%
viability, T/C [48]: 35.2%
viability, T/C [49]: 75.3%
viability, T/C [50]: 56.6%
viability, T/C [51]: 51.7%
viability, T/C [52]: 45.9%
viability, T/C [53]: 36.1%
viability, T/C [54]: 35%
viability, T/C [55]: 62.5%
viability, T/C [56]: 59.3%
viability, T/C [57]: 45.2%
viability, T/C [58]: 38.8%
viability, T/C [59]: 31.3%
viability, T/C [60]: 31.4%
viability, T/C [61]: 65.4%
viability, T/C [62]: 56.9%
viability, T/C [63]: 36.5%
viability, T/C [64]: 37.2%
viability, T/C [65]: 30.9%
viability, T/C [66]: 25.7%
viability, T/C [67]: 48.6%
viability, T/C [68]: 44.4%
viability, T/C [69]: 36.6%
viability, T/C [70]: 28.6%
viability, T/C [71]: 28.8%
viability, T/C [72]: 25.9%
